These results are taken from paper PMC3249654 (The Open Virology Journal, 2011).

Assay [1] concerns NA enzyme activity of influenza A(H1N1) viruses. The class given is biochemical, influenza A(H1N1) virus. The settings on record: read-out: IC50-values of outliers with reduced zanamivir susceptibility.
In assay [2] the test system is influenza A(H1N1) viruses. To be noted: cited from earlier work.

Several values for one entry are separate records, joined by “and”; a condition that tells them apart may be missing. Equal entries are not always repeated.

Regarding `CC(=O)N[C@H]1[C@H]([C@H](O)[C@H](O)CO)OC(C(=O)O)=C[C@@H]1N=C(N)N` [zanamivir], the IC50 in assay [1] is 3.1 nM and 3.4 nM and 5.3 nM. Regarding `CCOC(=O)C1=C[C@@H](OC(CC)CC)[C@H](NC(C)=O)[C@@H](N)C1` [oseltamivir], the “average prevalence of ORV in Europe” value in assay [2] is 20.1%.
